Assay results from ChEMBL document CHEMBL1201862, “PubChem BioAssay data set” (2004).
Activity calls are given as the source filed them.

How the values were obtained:
H9c2 = experiment: cells; type: functional, cell-based; conditions: Rattus norvegicus, H9c2, Myocardium
[1] = biological target: Glyceraldehyde-3-phosphate dehydrogenase (Homo sapiens, UniProt P04406)
Streptokinase A = biological target: T1, Streptokinase A (Streptococcus pyogenes serotype M1, UniProt P10520); experiment: viability-normalized secreted streptokinase activity reduction – plasminogen activation absorbance, OD405, dose response (AID 1914); type: functional, Streptococcus pyogenes M1 GAS;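 further: secreted streptokinase activity via plasminogen activation per viability signal from cell pellet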
T1 sequence (P10520 whole entry): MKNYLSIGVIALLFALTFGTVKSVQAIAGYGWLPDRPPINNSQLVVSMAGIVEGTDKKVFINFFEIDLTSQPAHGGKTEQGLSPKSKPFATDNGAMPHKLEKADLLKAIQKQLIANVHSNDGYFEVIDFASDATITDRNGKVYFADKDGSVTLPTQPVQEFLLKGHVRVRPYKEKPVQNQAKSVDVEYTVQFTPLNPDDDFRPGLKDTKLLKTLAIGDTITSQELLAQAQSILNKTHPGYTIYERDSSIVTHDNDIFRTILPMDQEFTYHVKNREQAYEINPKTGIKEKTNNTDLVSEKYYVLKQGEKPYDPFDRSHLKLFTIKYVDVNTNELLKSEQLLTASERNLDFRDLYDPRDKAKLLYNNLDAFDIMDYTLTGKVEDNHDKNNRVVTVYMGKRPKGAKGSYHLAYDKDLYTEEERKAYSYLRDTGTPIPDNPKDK

Streptococcus = experiment: GAS UMAA2166 growth inhibition – luminescence, BacTiterGlo, counter-screen for streptokinase expression inhibitor project, dose response (AID 1915); type: functional, organism-based;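 further: potency for reduction of bacterial viability or growth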
[2] = test system: Streptococcus sp. 'group A'; experiment: Streptococcus pyogenes SK(-)GAS viability under kanamycin – luminescence, BacTiterGlo, confirmation, counter-screen for streptokinase expression inhibitor project, dose response (AID 1900); type: functional, organism-based
[3] = microbe, parasite or virus in culture; type: functional; conditions: Mycobacterium tuberculosis
Protein RecA = biological target: T2, Protein RecA (Mycobacterium tuberculosis, UniProt P9WHJ3); experiment: Fluorescence Cell-Free Homogeneous Dose Retest to Identify Inhibitors of RecA-Intein Splicing Activity. [Related pubchem assays (depositor defined):AID2097, AID2223, AID489010, AID492950]; type: functional
T2 sequence (P9WHJ3 whole entry): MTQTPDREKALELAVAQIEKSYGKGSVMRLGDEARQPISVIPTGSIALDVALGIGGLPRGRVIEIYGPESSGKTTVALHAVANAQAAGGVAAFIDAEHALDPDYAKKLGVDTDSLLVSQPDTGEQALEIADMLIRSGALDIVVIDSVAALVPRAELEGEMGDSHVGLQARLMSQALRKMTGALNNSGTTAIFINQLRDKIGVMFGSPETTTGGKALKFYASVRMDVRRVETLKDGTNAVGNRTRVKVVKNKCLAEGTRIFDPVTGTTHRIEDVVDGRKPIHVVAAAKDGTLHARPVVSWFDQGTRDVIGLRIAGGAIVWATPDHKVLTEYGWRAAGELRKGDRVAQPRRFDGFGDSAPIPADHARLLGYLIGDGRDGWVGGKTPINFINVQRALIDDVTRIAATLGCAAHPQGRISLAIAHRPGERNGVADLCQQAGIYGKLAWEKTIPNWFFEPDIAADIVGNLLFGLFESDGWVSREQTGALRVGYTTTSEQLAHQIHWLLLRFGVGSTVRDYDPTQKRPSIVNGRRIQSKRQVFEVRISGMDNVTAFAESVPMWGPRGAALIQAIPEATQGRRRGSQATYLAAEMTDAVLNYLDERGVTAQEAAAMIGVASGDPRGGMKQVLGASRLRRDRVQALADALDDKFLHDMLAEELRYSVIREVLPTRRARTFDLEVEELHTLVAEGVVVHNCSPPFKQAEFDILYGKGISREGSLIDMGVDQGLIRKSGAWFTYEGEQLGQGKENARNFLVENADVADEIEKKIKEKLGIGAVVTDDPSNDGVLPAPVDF

[4] = biological target: T3, Replicative DNA helicase DnaB (Mycobacterium tuberculosis, UniProt P9WMR3); experiment: DnaB intein splicing inhibitors, dose response, biochemical, cell-free fluorescence (AID 449749); type: functional
T3 sequence (P9WMR3 whole entry): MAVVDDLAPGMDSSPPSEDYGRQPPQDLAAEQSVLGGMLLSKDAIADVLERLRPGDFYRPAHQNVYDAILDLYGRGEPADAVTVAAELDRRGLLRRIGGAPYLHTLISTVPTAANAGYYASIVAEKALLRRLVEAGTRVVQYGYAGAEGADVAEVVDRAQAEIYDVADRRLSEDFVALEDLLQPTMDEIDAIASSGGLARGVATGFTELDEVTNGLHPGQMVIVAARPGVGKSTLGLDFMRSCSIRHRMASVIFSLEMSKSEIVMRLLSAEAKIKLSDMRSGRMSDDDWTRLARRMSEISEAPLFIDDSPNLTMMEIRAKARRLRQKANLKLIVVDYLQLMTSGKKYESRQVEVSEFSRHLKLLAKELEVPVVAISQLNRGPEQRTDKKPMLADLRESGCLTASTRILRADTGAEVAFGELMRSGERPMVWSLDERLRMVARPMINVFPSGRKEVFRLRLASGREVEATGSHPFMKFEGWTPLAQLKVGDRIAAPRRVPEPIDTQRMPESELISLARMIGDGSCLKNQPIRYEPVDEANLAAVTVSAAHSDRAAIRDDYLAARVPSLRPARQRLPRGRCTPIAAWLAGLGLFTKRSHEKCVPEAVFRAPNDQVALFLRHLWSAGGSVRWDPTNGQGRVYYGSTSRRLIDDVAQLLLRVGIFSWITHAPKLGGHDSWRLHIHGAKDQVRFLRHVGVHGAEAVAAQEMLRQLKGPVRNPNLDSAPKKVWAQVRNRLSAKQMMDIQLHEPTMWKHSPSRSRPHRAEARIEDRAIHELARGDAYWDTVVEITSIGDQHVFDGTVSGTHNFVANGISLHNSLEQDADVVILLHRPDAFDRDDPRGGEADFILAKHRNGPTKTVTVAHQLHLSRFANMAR

Large T antigen = Large T antigen (Simian virus 40, UniProt P03070); type: functional, Betapolyomavirus macacae;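 further: Confirmatory-stage PubChem screen for compounds that inhibit SV40 T antigen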
Sequence of Large T antigen (P03070 whole entry, the tested form may be a part): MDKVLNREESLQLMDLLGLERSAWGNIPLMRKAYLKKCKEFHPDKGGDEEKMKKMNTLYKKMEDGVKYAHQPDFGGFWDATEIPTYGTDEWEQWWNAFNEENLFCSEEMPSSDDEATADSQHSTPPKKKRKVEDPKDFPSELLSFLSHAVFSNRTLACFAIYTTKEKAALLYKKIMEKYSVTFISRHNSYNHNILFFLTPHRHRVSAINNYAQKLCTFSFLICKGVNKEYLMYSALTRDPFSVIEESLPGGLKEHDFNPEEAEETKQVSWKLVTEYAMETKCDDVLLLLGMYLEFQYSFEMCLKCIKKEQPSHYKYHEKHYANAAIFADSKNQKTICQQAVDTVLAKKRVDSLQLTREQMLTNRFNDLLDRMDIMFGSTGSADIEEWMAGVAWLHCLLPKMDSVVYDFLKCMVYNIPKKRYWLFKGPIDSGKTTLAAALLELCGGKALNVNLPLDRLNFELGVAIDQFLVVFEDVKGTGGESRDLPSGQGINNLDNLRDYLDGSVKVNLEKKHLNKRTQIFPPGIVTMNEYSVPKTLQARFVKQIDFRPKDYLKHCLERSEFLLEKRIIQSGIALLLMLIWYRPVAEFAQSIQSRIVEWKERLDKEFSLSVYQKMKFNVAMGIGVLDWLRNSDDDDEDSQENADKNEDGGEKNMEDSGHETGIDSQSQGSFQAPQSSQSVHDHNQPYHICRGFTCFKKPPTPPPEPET

[5] = biological target: T4, RNA-binding protein pos-1 (Caenorhabditis elegans, UniProt G5EF15); experiment: disruptors of C. elegans POS-1 RNA interaction – biochemical, fluorescence polarization, dose response (AID 1964);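 further: purified POS-1 fused to maltose binding protein made in E. coli; potency of compounds blocking POS-1 binding to fluorescent RNA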
T4 sequence (G5EF15 whole entry): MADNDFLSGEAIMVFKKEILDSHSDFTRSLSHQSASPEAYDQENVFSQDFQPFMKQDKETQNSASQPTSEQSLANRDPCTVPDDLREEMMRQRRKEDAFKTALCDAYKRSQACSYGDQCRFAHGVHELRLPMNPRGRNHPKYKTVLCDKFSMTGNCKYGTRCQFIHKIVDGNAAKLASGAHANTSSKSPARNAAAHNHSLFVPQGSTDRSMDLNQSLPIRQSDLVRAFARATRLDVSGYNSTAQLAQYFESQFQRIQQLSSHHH

[6] = biological target: T5, Zinc finger protein mex-5 (Caenorhabditis elegans, UniProt Q9XUB2); experiment: potency of MEX-5 RNA-binding blockers – biochemical, C. elegans, fluorescence polarization, dose response (AID 1960)
T5 sequence (Q9XUB2 whole entry): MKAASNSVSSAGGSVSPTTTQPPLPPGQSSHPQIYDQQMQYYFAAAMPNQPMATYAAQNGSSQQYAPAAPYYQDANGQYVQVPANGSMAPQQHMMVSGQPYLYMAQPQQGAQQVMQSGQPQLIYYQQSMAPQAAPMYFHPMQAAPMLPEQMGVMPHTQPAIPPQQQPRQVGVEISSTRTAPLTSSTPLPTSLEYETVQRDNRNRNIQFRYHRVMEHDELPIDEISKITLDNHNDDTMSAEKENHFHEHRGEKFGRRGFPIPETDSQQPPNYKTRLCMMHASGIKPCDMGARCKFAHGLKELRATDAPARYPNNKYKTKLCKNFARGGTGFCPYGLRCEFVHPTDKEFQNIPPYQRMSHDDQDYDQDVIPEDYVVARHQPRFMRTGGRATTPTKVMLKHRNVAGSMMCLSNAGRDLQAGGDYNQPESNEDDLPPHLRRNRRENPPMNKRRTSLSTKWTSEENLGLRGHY

[7] = biological target: T6, Polyadenylate-binding protein 1 (Homo sapiens, UniProt P11940); experiment: MLLE domain peptide-binding blockers, IC50 – biochemical, fluorescence polarization, FITC-PAM2 peptide, dose response (AID 602259); type: functional; conditions: read-out: IC50_Mean
T6 sequence (P11940 whole entry, the tested form may be a part): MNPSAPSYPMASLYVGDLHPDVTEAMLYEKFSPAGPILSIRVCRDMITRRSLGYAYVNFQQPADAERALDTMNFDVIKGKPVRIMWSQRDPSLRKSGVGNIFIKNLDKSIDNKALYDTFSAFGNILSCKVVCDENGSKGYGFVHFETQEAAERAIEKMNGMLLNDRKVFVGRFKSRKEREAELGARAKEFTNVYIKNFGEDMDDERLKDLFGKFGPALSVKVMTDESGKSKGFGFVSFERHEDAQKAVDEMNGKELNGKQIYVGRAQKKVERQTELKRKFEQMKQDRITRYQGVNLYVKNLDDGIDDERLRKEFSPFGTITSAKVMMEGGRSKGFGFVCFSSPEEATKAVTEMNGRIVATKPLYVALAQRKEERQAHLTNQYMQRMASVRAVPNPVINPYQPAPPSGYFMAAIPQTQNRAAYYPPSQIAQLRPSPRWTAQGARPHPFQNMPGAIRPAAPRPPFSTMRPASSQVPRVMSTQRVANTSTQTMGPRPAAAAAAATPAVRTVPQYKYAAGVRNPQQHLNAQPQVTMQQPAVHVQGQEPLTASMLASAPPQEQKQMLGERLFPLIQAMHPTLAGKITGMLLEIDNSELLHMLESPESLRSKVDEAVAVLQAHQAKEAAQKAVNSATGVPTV

[8] = biological target: T6, Polyadenylate-binding protein 1; experiment: MLLE binding blockers, Cy5 peptide tracer – biochemical, fluorescence polarization, Cy5-PAM2 peptide, secondary, miRNA deadenylation inhibitor project, dose response (AID 602260); type: functional; conditions: read-out: IC50_Mean
[9] = biological target: T7, Corticotropin-releasing factor receptor 2/Corticotropin-releasing factor-binding protein (Homo sapiens, UniProt P24387+Q13324); experiment: Dose Response confirmation of uHTS hits for small molecule antagonists of the CRF-binding protein and CRF-R2 receptor complex.; type: functional; conditions: read-out: IC50_Mean
T7 sequence (Q13324 whole entry): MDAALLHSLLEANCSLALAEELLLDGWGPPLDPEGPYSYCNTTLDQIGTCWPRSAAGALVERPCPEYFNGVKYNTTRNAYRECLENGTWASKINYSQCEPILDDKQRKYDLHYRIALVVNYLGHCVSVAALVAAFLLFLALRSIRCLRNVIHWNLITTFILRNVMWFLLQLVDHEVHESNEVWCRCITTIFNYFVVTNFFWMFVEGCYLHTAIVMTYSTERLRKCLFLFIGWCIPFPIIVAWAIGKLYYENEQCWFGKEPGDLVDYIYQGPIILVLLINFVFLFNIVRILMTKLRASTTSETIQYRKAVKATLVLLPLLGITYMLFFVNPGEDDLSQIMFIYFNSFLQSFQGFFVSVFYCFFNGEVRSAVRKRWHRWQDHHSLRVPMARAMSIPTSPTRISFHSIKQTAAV
T7 sequence (P24387 whole entry): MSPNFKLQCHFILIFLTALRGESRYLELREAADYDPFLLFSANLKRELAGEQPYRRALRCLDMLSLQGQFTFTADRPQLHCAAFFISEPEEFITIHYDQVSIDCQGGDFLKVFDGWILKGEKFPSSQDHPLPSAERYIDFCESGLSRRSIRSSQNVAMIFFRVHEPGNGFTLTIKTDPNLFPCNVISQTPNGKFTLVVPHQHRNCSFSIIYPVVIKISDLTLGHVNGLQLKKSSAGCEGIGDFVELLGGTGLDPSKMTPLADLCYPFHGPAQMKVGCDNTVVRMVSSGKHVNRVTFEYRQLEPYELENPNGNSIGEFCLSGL

[10] = biological target: T7, Corticotropin-releasing factor receptor 2/Corticotropin-releasing factor-binding protein; experiment: activators of CRF receptor 2 with binding protein – uHTS hits, confirmation (AID 602473); type: functional; conditions: read-out: EC50_Mean
cells = type: functional

Sequence of Glyceraldehyde-3-phosphate dehydrogenase (P04406 whole entry): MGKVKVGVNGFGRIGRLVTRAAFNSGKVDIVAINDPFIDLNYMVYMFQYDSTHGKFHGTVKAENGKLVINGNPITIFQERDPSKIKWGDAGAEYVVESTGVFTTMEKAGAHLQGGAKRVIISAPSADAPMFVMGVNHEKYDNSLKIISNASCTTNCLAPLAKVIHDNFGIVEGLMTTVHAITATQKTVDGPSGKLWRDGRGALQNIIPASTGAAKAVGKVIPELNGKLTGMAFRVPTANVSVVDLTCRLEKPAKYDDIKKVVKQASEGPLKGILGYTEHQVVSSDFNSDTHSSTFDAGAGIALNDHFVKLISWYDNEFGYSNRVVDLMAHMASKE

## CCC(CC)C(=O)Nc1cc(C)c2c(=O)oc3ccccc3c2n1
H9c2
  IC50: > 79 µM (inactive)

## Cc1ccc(S(=O)(=O)Nc2ccc(O)c(C(=O)O)c2)c(C)c1
[1]
  IC50: > 100 µM (not active)

## O=C(COc1ccc(Cl)cc1)NCc1nnc(O)c2ccccc12
H9c2
  IC50: > 79 µM (inactive)

## COc1ccc(-c2oc(NC(=O)CCl)c(C#N)c2-c2ccc(OC)cc2)cc1
Streptokinase A
  EC50: 1.16 µM (active)
Streptococcus
  EC50: > 150 µM (not active)
[2]
  EC50: 1.18 µM (active)
[3]
  CC50: 10.1 µM (active)
Protein RecA
  EC50: 0.67 µM (active)
[4]
  AC50: 0.416 µM (active)

## Cc1ccc2cc3c(N)[nH]nc3nc2c1
Large T antigen
  IC50: 13.1 µM (active)

## CCC(ONc1ccccc1C(F)(F)F)(C(=O)NN(C)C)c1ccccc1 (configuration not stated)
H9c2
  IC50: 33.3 µM (inactive)

## CCc1ccc(N2C(=O)NC(=O)/C(=C\c3cc(C)n(-c4cc(C(=O)O)cc(C(=O)O)c4)c3C)C2=O)cc1
[5]
  EC50: > 300 µM (not active)
[6]
  EC50: > 300 µM (not active)

## O=C(CC1CCCCC1)Nc1nc[nH]n1
[1]
  IC50: > 10 µM (inconclusive)

## CCOC(=O)C1=C(O)/C(=C/c2cccc(OC)c2O)N=C1C
Large T antigen
  IC50: 16.4 µM (active)

## COC(=O)c1ccc(C(C(=O)NCc2ccccc2)N(Cc2cccs2)C(=O)c2cnccn2)cc1 (configuration not stated)
H9c2
  IC50: 8.82 µM (active)

## CCOC(=O)C1CCN(c2cc3c(cc2NC(=O)c2ccccc2Cl)n(C)c(=O)n3C)CC1
H9c2
  IC50: > 79 µM (inactive)

## O=C(O)CN1C(=O)C2C3CC(C2C1=O)C1C(c2ccc(F)cc2)c2sc(O)nc2SC31 (configuration not stated)
[7]
  IC50: > 66 µM (inactive)
[8]
  IC50: > 66 µM (inactive)

## CN(C)/C=C/C(=O)c1cnc(-c2ccccc2Cl)s1
[5]
  EC50: > 300 µM (not active)
[6]
  EC50: > 300 µM (not active)

## CCC(C)N(C(=O)COC(=O)/C=C/c1ccc(O)c(OC)c1)C1CCS(=O)(=O)C1 (configuration not stated)
Large T antigen
  IC50: 11.4 µM (active)

## NC(=S)c1cnn2c(-c3cccc(C(F)(F)F)c3)ccnc12
[7]
  IC50: > 66 µM (inactive)
[8]
  IC50: > 66 µM (inactive)

## N#CC1=C(N)OC2=C(C(=O)CC(c3ccccc3)C2)C1c1ccc2c(c1)OCO2 (configuration not stated)
[9]
  IC50: > 47.1 µM (inactive)
[5]
  EC50: > 300 µM (not active)
[10]
  EC50: > 53 µM (inactive)
[6]
  EC50: > 300 µM (not active)

## CC1CCN(C(=O)CSc2nncn2-c2ccccn2)CC1
[7]
  IC50: > 66 µM (inactive)
[8]
  IC50: > 66 µM (inactive)

## CC(C)OCCCNC(=O)CCC(=O)NNc1nc2ccccc2c2nc(-c3ccccc3)nn12
H9c2
  IC50: 13.5 µM (active)

## CC(C)C1Nc2ccc(S(N)(=O)=O)cc2C2C=CCC21 (configuration not stated)
[5]
  EC50: 52.4 µM (active)
[6]
  EC50: 30.4 µM (active)

## Cc1ccccc1NC(=O)CSC(=O)c1ccccc1
[7]
  IC50: > 66 µM (inactive)
[8]
  IC50: > 66 µM (inactive)

## COc1ccc(OCC(O)Cn2c(Br)nc3c2c(=O)[nH]c(=O)n3C)cc1 (configuration not stated)
H9c2
  IC50: 16.4 µM (active)

## Cc1cc2cc(CNC(=O)Cc3cccs3)ccc2n1C
[7]
  IC50: > 66 µM (inactive)
[8]
  IC50: > 66 µM (inactive)

## O=C(NC(=S)N1CCCCCC1)c1ccccc1Cl
[7]
  IC50: > 66 µM (inactive)
[8]
  IC50: > 66 µM (inactive)

## COc1ccc(C(=O)COC(=O)c2ccc([N+](=O)[O-])s2)cc1OC
cells
  IC50: 10.6 µM (active)
H9c2
  IC50: > 79 µM (inactive)
